# Like-named read-outs stand apart in the source and are kept apart here.
# Experiments:
# [1] = Plasma protein binding assay, human; type: in vitro ADME; details: plasma proteins, 4 h at 37° C., equilibrium dialysis, read-out: % bound [human]
# Description: A drug's efficiency may be affected by the degree to which it binds to the proteins within blood plasma. A drug in blood exists in two forms: bound and unbound. Depending on a specific drug's affinity for plasma protein, a proportion of the drug may become bound to plasma proteins, with the remainder being unbound. […] It is also the fraction that may be metabolized and/or excreted. Protein binding can influence the drug's biological half-life in the body. The bound portion may act as a reservoir or depot from which the drug is slowly released as the unbound form. In order to determine the binding characteristics of the compounds of the present invention as listed in the following Table to human or mouse plasma protein, respectively, a plasma protein binding assay was carried out. All compounds have a plasma protein binding that is appropriate for diagnostic, therapeutic and theranostic use of these compounds according to the present invention.
# The binding of test substances to human and murine plasma proteins was tested by Cerep (Celle l'Evescault, France; Catalog reference 2194 [human] and 2223 [mouse]) according to Banker et al., J. Pharm. Sci., 2003, 92, 967-974. Test compounds were incubated with human or murine plasma proteins for 4 h at 37° C. Subsequently, the fraction of compound bound to plasma proteins was determined by equilibrium dialysis and HPLC-MS/MS detection. […]
# [2] = tested on: GPCRs, ion channels, and transporter proteins; assay: Specificity screening (ExpresSProfile), whole panel; type: binding; details: 10^−5 M
# Description: The specificity screening was carried out in order to test for unspecific binding of compounds of the present invention. The specificity for NTR1 was tested using a standard battery of assays (“ExpresSProfile”) comprising 55 assays on GPCRs, ion channels, and transporter proteins. This assay was performed by Cerep (Celle l'Evescault, France; Catalog reference P1).
# Unspecific binding according to this specificity screening is observed if Inhibition of Control Specific Binding is above 50%.
# [3] = tested on: alpha 1 (non-selective); assay: ExpresSProfile: alpha1 adrenergic receptor, antagonist radioligand; type: binding; details: Test Concentration 1.0E−05 M
# [4] = biological target: beta 1 (h) (Homo sapiens (Human), UniProt P08588); assay: ExpresSProfile: beta1 adrenergic receptor, agonist radioligand; type: binding; details: Test Concentration 1.0E−05 M
# [5] = biological target: CB1 (h) (Homo sapiens (Human), UniProt P21554); assay: ExpresSProfile: cannabinoid receptor 1, agonist radioligand; type: binding; details: Test Concentration 1.0E−05 M
# [6] = biological target: CCK1 (CCKA) (h) (Homo sapiens (Human), UniProt P32238); assay: ExpresSProfile: cholecystokinin receptor 1, agonist radioligand; type: binding; details: Test Concentration 1.0E−05 M
# [7] = biological target: D1 (h) (Homo sapiens (Human), UniProt P21728); assay: ExpresSProfile: dopamine receptor 1, antagonist radioligand; type: binding; details: Test Concentration 1.0E−05 M
# [8] = tested on: GABA (non-selective); assay: ExpresSProfile: GABA, agonist radioligand; type: binding; details: Test Concentration 1.0E−05 M
# [9] = biological target: GAL2 (h) (Homo sapiens (Human), UniProt O43603); assay: ExpresSProfile: galanin receptor 2, agonist radioligand; type: binding; details: Test Concentration 1.0E−05 M
# [10] = biological target: CXCR2 (IL-8B) (h) (Homo sapiens (Human), UniProt P25025); assay: ExpresSProfile: C-X-C chemokine receptor type 2, agonist radioligand; type: binding; details: Test Concentration 1.0E−05 M
# [11] = biological target: H2 (h) (Homo sapiens (Human), UniProt P25021); assay: ExpresSProfile: histamine receptor 2, antagonist radioligand; type: binding; details: Test Concentration 1.0E−05 M
# [12] = biological target: M3 (h) (Homo sapiens (Human), UniProt P20309); assay: ExpresSProfile: muscarinic receptor 3, antagonist radioligand; type: binding; details: Test Concentration 1.0E−05 M
# [13] = biological target: EP4 (h) (Homo sapiens (Human), UniProt P35408); assay: ExpresSProfile: prostaglandin e receptor type 4, agonist radioligand; type: binding; details: Test Concentration 1.0E−05 M
# [14] = biological target: 5-HT1B (Rattus norvegicus, UniProt P28564); assay: ExpresSProfile: 5-hydroxytryptamine receptor 1B, antagonist radioligand; type: binding; details: Test Concentration 1.0E−05 M
# [15] = biological target: 5-HT2A (h) (Homo sapiens (Human), UniProt P28223); assay: ExpresSProfile: 5-hydroxytryptamine receptor 2A, antagonist radioligand; type: binding; details: Test Concentration 1.0E−05 M
# [16] = biological target: 5-HT3 (h) (Homo sapiens (Human), UniProt P46098); assay: ExpresSProfile: 5-hydroxytryptamine channel 3, antagonist radioligand; type: binding; details: Test Concentration 1.0E−05 M
# [17] = biological target: 5-HT5a (h) (Homo sapiens (Human), UniProt P47898); assay: ExpresSProfile: 5-hydroxytryptamine receptor 5a, agonist radioligand; type: binding; details: Test Concentration 1.0E−05 M
# [18] = biological target: 5-HT7 (h) (Homo sapiens (Human), UniProt P34969); assay: ExpresSProfile: 5-hydroxytryptamine receptor 7, agonist radioligand; type: binding; details: Test Concentration 1.0E−05 M
# [19] = biological target: VPAC1 (VIP1) (h) (Homo sapiens (Human), UniProt P32241); assay: ExpresSProfile: vasoactive intestinal polypeptide receptor 1, agonist radioligand; type: binding; details: Test Concentration 1.0E−05 M
# [20] = tested on: KV channel; assay: ExpresSProfile: KV channel, antagonist radioligand; type: binding; details: Test Concentration 1.0E−05 M
# [21] = read-out: % Inhibition of Control Specific Binding
# [22] = read-out: % of Control Specific Binding 1st
# [23] = read-out: % of Control Specific Binding 2nd
# [24] = read-out: % of Control Specific Binding Mean
# 5-HT5a (h), sequence (P47898 whole entry): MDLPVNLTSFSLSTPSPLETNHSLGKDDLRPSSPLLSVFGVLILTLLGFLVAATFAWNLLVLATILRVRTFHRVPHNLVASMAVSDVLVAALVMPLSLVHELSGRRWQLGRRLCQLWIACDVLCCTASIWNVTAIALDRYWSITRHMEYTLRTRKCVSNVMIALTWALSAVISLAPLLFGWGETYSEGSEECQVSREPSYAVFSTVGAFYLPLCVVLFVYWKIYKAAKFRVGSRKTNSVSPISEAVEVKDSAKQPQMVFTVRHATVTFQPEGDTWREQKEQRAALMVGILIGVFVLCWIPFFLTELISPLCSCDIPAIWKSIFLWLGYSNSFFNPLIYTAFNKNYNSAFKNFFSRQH
# 5-HT7 (h), sequence (P34969 whole entry): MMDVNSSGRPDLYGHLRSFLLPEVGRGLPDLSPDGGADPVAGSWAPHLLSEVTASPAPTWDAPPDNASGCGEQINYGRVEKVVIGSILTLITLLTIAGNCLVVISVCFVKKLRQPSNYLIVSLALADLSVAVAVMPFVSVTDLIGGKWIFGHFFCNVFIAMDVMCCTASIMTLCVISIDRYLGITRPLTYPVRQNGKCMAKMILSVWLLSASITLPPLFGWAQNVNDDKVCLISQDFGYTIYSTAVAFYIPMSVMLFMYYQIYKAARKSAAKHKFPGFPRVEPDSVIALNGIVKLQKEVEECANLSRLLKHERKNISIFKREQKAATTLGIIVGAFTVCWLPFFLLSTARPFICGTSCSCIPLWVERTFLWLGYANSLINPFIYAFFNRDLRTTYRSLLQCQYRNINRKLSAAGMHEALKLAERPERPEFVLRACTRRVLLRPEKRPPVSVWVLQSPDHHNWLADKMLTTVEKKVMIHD
# D1 (h), sequence (P21728 whole entry): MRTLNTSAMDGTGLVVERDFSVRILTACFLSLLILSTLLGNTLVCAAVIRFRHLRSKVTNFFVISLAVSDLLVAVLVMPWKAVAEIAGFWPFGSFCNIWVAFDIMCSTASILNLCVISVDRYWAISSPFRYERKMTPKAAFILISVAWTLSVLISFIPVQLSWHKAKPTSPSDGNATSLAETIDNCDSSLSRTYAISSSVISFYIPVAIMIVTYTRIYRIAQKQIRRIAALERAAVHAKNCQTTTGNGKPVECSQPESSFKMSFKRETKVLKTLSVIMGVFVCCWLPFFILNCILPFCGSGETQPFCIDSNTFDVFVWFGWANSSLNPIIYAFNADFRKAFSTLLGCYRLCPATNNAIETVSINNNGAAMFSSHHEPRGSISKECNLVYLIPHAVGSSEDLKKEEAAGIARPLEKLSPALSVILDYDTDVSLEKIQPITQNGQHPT
# GAL2 (h), sequence (O43603 whole entry): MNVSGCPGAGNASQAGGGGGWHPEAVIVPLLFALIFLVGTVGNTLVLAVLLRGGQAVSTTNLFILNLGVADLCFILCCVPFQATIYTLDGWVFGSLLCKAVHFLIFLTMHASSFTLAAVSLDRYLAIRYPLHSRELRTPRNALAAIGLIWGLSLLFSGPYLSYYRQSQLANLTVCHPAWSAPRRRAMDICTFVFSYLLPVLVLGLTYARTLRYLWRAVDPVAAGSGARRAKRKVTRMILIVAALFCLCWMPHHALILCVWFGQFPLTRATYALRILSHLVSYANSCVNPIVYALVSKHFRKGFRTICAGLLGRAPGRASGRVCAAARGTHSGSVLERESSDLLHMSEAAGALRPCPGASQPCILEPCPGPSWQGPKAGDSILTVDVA
# 5-HT2A (h), sequence (P28223 whole entry): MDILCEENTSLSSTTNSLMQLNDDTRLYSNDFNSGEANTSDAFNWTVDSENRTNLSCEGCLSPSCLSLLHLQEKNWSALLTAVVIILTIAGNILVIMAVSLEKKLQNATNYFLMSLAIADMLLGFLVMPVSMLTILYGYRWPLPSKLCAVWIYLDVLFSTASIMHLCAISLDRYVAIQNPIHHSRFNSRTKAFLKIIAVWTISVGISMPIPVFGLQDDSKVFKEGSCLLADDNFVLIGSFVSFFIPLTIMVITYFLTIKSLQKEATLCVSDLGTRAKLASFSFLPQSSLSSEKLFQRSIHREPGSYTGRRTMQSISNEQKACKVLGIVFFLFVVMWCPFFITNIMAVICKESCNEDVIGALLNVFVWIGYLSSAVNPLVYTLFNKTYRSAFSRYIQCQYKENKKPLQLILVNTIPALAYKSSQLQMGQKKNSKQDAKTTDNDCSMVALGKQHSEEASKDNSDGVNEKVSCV
# CCK1 (CCKA) (h), sequence (P32238 whole entry): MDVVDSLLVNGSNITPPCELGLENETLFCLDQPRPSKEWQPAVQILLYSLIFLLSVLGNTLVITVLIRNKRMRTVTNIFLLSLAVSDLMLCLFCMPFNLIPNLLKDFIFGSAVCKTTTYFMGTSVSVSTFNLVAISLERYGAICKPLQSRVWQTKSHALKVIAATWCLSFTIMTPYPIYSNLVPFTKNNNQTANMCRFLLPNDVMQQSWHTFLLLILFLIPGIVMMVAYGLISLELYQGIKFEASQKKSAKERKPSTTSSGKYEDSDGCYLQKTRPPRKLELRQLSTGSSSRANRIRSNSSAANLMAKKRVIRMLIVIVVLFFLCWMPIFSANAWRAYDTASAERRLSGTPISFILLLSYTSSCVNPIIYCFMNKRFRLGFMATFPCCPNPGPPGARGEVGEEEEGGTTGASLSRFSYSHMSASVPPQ
# VPAC1 (VIP1) (h), sequence (P32241 31-457): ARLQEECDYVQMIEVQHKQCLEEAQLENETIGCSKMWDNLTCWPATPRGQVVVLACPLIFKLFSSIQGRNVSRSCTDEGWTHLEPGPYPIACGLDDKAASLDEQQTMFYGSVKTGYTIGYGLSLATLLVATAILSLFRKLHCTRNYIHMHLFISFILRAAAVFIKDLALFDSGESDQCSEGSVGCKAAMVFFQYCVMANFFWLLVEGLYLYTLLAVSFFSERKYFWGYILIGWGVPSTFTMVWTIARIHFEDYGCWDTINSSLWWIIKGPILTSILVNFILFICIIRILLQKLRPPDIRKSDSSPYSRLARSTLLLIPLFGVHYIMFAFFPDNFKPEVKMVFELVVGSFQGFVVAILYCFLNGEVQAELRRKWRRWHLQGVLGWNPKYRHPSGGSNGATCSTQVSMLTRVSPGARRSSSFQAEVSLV
# 5-HT3 (h), sequence (P46098 24-478): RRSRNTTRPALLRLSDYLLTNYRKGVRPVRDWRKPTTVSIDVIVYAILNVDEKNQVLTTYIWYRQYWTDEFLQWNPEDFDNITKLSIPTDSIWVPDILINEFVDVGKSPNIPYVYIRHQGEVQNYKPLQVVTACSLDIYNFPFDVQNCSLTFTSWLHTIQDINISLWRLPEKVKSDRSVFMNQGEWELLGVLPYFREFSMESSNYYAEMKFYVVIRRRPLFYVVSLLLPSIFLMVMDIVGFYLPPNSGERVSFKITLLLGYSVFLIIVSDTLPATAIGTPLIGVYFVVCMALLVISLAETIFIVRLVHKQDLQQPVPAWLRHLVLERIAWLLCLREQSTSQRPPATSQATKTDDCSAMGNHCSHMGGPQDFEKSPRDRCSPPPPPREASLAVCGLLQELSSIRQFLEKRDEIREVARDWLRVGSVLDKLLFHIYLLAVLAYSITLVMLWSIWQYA
# CB1 (h), sequence (P21554 whole entry): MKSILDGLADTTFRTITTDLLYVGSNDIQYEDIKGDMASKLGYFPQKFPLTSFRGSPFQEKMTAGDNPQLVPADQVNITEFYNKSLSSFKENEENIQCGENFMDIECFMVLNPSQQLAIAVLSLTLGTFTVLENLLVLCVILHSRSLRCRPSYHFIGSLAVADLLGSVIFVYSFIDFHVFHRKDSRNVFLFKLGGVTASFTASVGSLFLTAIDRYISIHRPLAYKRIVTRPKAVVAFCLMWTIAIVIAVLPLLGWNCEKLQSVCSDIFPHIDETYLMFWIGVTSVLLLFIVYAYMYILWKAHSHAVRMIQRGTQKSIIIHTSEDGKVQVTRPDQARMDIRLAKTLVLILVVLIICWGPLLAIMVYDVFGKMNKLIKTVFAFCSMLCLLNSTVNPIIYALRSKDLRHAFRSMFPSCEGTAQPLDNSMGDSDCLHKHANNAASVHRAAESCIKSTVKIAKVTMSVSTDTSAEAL
# beta 1 (h), sequence (P08588 whole entry): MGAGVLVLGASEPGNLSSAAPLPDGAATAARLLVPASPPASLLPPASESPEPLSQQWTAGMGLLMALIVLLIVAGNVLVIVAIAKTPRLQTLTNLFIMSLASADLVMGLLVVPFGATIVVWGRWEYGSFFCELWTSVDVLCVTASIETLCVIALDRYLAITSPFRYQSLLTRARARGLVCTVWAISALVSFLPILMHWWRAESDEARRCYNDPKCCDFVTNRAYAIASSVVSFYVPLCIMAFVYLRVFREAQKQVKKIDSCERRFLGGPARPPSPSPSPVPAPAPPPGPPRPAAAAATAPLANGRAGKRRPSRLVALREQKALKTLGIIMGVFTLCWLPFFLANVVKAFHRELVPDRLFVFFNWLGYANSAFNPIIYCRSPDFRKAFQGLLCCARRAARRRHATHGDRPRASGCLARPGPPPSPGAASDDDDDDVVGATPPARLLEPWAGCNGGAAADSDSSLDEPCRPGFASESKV
# H2 (h), sequence (P25021 whole entry): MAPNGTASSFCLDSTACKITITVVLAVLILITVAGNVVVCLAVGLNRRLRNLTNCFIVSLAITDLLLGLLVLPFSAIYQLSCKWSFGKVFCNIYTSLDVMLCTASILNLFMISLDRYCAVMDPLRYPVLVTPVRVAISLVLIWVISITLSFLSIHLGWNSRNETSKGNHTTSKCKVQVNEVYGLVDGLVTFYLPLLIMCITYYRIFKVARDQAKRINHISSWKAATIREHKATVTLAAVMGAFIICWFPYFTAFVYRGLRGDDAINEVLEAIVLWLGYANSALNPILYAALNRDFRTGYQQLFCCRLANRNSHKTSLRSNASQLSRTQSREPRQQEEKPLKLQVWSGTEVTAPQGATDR
compound,measurement,setting,value
"COc1cccc(OC)c1-c1cc(C(=O)NC2(C(=O)O)C3CC4CC(C3)CC2C4)nn1-c1ccc(C(=O)N(C)CCCN(C)CCCN(C)C(=O)CN2CCN(CC(=O)O)CCN(CC(=O)O)CCN(CC(=O)O)CC2)cc1C(C)C (centres unmarked) [(IIIa), 2-{[1-{4-[(3-{[3-(DOTA-methyl-amino)-propyl]-methyl-amino}-propyl)-methyl-carbamoyl]-2-isopropyl-phenyl}-5-(2,6-dimethoxy-phenyl)-1H-pyrazole-3-carbonyl]-amino}-adamantane-2-carboxylic acid]",fraction unbound at 4 h,[1],0.01
same,specificity,[2],highly specific
same,% Inhibition of Control Specific Binding,[3],−9%
same,% of Control Specific Binding 1st,[3],106.2%
same,% of Control Specific Binding 2nd,[3],111.1%
same,% of Control Specific Binding Mean,[3],108.7%
same,inhibition at 10 µM,[4]; [21],2%
same,remaining activity at 10 µM,[4]; [22],89.9%
same,remaining activity at 10 µM,[4]; [23],106%
same,remaining activity at 10 µM,[4]; [24],98%
same,inhibition at 10 µM,[5]; [21],11%
same,remaining activity at 10 µM,[5]; [22],96%
same,remaining activity at 10 µM,[5]; [23],82.5%
same,remaining activity at 10 µM,[5]; [24],89.3%
same,inhibition at 10 µM,[6]; [21],-18%
same,remaining activity at 10 µM,[6]; [22],102%
same,remaining activity at 10 µM,[6]; [23],135%
same,remaining activity at 10 µM,[6]; [24],118%
same,inhibition at 10 µM,[7]; [21],-5%
same,remaining activity at 10 µM,[7]; [22],114%
same,remaining activity at 10 µM,[7]; [23],96.3%
same,remaining activity at 10 µM,[7]; [24],105%
same,% Inhibition of Control Specific Binding,[8],−6%
same,% of Control Specific Binding 1st,[8],101.9%
same,% of Control Specific Binding 2nd,[8],109.9%
same,% of Control Specific Binding Mean,[8],105.9%
same,inhibition at 10 µM,[9]; [21],1%
same,remaining activity at 10 µM,[9]; [22],96.5%
same,remaining activity at 10 µM,[9]; [23],102%
same,remaining activity at 10 µM,[9]; [24],99.3%
same,inhibition at 10 µM,[10]; [21],-9%
same,remaining activity at 10 µM,[10]; [22],119%
same,remaining activity at 10 µM,[10]; [23],99.6%
same,remaining activity at 10 µM,[10]; [24],109%
same,inhibition at 10 µM,[11]; [21],-4%
same,remaining activity at 10 µM,[11]; [22],106%
same,remaining activity at 10 µM,[11]; [23],102%
same,remaining activity at 10 µM,[11]; [24],104%
same,inhibition at 10 µM,[12]; [21],-23%
same,remaining activity at 10 µM,[12]; [22],122%
same,remaining activity at 10 µM,[12]; [23],124%
same,remaining activity at 10 µM,[12]; [24],124%
same,inhibition at 10 µM,[13]; [21],8%
same,remaining activity at 10 µM,[13]; [22],89.2%
same,remaining activity at 10 µM,[13]; [23],95.5%
same,remaining activity at 10 µM,[13]; [24],92.3%
same,inhibition at 10 µM,[14]; [21],-7%
same,remaining activity at 10 µM,[14]; [22],107%
same,remaining activity at 10 µM,[14]; [23],106%
same,remaining activity at 10 µM,[14]; [24],107%
same,inhibition at 10 µM,[15]; [21],-2%
same,remaining activity at 10 µM,[15]; [22],101%
same,remaining activity at 10 µM,[15]; [23],103%
same,remaining activity at 10 µM,[15]; [24],102%
same,inhibition at 10 µM,[16]; [21],-8%
same,remaining activity at 10 µM,[16]; [22],108%
same,remaining activity at 10 µM,[16]; [23],108%
same,remaining activity at 10 µM,[16]; [24],108%
same,inhibition at 10 µM,[17]; [21],-2%
same,remaining activity at 10 µM,[17]; [22],109%
same,remaining activity at 10 µM,[17]; [23],95.2%
same,remaining activity at 10 µM,[17]; [24],102%
same,inhibition at 10 µM,[18]; [21],2%
same,remaining activity at 10 µM,[18]; [22],96.6%
same,remaining activity at 10 µM,[18]; [23],99.7%
same,remaining activity at 10 µM,[18]; [24],98.2%
same,inhibition at 10 µM,[19]; [21],-6%
same,remaining activity at 10 µM,[19]; [22],104%
same,remaining activity at 10 µM,[19]; [23],107%
same,remaining activity at 10 µM,[19]; [24],106%
same,% Inhibition of Control Specific Binding,[20],−4%
same,% of Control Specific Binding 1st,[20],104.3%
same,% of Control Specific Binding 2nd,[20],104.2%
same,% of Control Specific Binding Mean,[20],104.3%

# From patent US10799605B2 (3B PHARMACEUTICALS GMBH, priority 2014, dated 2020)
